Experimental data published in paper PMC3774597 (Journal of biomolecular screening, 2012).

Columns and labels:
[1] = target: T1, isoleucyl-tRNA synthetase (IleRS) (Trypanosoma brucei, UniProt Q38A55); experiment: malachite green aminoacylation assay coupled to pyrophosphatase, dose response; assay type: biochemical
T1 sequence (Q38A55 67-1143): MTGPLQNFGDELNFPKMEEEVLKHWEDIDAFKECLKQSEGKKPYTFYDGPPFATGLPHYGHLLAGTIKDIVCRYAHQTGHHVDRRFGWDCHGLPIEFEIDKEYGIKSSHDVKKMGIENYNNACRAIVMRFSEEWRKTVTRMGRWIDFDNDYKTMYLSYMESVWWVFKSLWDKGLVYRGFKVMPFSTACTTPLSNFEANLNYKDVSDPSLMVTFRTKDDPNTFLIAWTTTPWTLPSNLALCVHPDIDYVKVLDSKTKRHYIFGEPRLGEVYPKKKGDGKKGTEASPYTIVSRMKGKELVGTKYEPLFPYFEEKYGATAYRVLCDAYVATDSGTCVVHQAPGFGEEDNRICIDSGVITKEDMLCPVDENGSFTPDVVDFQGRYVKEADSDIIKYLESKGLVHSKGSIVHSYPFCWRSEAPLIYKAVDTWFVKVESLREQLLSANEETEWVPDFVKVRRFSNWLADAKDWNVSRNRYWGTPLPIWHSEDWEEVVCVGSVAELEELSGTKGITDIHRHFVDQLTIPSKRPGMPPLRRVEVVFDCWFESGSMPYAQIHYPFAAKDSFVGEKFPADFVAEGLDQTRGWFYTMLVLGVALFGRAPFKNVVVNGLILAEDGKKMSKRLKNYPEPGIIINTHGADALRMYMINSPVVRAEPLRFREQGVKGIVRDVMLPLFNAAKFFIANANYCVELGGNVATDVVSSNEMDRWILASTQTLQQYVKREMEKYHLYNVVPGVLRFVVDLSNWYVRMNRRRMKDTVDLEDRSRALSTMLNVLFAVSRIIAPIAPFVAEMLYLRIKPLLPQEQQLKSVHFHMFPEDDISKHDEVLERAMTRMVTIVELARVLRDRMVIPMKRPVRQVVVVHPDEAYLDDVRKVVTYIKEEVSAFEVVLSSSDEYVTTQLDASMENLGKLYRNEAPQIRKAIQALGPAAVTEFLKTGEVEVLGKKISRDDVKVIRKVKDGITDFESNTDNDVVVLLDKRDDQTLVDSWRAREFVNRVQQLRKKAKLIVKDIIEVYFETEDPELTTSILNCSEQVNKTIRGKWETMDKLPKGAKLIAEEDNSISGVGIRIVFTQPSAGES

[2] = substrate: CC[C@H](C)[C@H](N)C(=O)O; experiment: Michaelis-Menten kinetics; assay type: biochemical, Trypanosoma brucei

Molecule: CC(C)(C)[Si](C)(C)OCC1OC(n2cnc3c(N)ncnc32)C(O)C1O (centres unmarked) [NSC616354]
- IC50 [1]: 600 nM

B1: isoleucyl-tRNA synthetase (IleRS) (Trypanosoma brucei brucei TREU927) (protein)
chain: T1 sequence (Q38A55 67-1143)
- Km [2]: 39.7 µM
